# In patent US10226041B2, “Compositions and methods for improving the quality of processed sperm” (Inguran, LLC, priority 2011, dated 2019):
# Values joined by “and” are separate entries in the source; they are usually repeats but may differ in a detail not shown here. Identical values can stand only once.
# Test system: sex-sorted sperm cells
# Assay: CASA post-thaw motility of sex sorted bull sperm treated with OSR
# Type: cell-based, bovine
# Parameters: key to BCF: beat cross frequency in Hz; key to ALH: lateral head displacement in μm; key to STR / LIN: percent; key to Motile: percent motile sperm; key to VAP / VSL / VCL: velocity in μm/s
# Conditions: for ALH / BCF / LIN / Motile / Prog / STR / VAP / VCL / VSL: 3 hr post-thaw
# Text: 5. Sperm Motility Evaluations by CASA. A comparison of viewing chambers and slides can be done in a variety of IVOS instruments, which for example only can be a Hamilton-Thorne IVOS (Hamilton-Thorne, Beverly, Mass.). Instrument settings: image capture; frames per second=60; number of frames=30; cell detection; minimum contrast=50; minimum cell size=5; defaults, cell size=5; cell intensity=50; progressive cells, path velocity=50 um/s; straightness ≥70%; slow cells (um/s); average path velocity (VAP, <30 um/s), straight-line velocity (VSL, <15 um/s). The CASA motility variables measured can be a percentage of total motile sperm (motile), percentage of progressively motile sperm (progressive), VAO, VSL, curvilinear velocity (VCL, um/s), average lateral head displacement (ALK, um) and the number of times the sperm head crosses the mean path/s (BCF, Hz), straight-line sperm motility (STR, %), and linear sperm motility (LIN, %). See for instance, Lenz, R W, et al., J Anim Sci (2011) 89:383-388, incorporated by reference herein in its entirety.
# One set of semen from each bull was used as a control while to the remaining sets of semen samples were added vitamin B12, as the antioxidant, at respective concentrations of 0.5 mg/ml and 0.25 mg/ml. For each sample, the same concentration of vitamin B12 was added (i) during the staining process, and (ii) in the catch fluid of the collection vessel. […] Sperm samples were sorted in “High Purity” mode, and the collected sex-sorted sperm were extended with a cryoextender, which in some cases again contained the same concentration of vitamin B12 and the samples were frozen. Three hours after thawing (which is a standard time frame to conduct quality control assessments on sorted frozen thawed sperm samples) the thawed samples were put through CASA, a machine that provides various data on sperm including motility and progressive motility information.
# In the tables below: VAP (average path velocity (μm/s)); VSL (straight-line velocity (μm/s)); VCL (curvilinear velocity (μm/s)); ALH (average lateral head displacement (μm)); BCF (the number of times the sperm head crosses the mean path/s in Hz); STR (percent straight-line sperm motility); LIN (percent linear sperm motility); PIA (percent intact acrosomes); motile (percent motile sperm); and progressive (percent progressively motile sperm).
# There is no correlation with regard to randomly assigned names such as “Bull A.” Bull A from Example 5 is not the same bull as Bull A from Example 7.
# In both cases the concentration of the vitamin B12 was 1 mg/ml. For all other bulls in the table below unless otherwise indicated, the concentration of vitamin B12 added was also 1 mg/ml.
# In an additional experiment, motility and progressive motility were checked 3.75 hours after thawing a sex sorted semen sample treated with the antioxidant. The OSR was not added to the control sample. The semen sample was derived from a single bull. 0.25 mg/ml concentration of vitamin B12 was added to the test sample during the staining step, the collecting step (in the catch fluid of the collecting vessel) and in the cryoprotectant extender prior to freezing the sample.
# […] The OSR was not added to the control samples. The semen samples were derived from two Holstein bulls.
# [1] = 0.5 mg/ml, 2 step F, 3 hrs post-thaw, Bulls 1-5
# [2] = .15 mg/ml, 3 step, Holstein, 1M/straw
# [3] = .15 mg/ml, 3 step, Holstein, 2.1M/straw
# [4] = .15 mg/ml, 3 step, Jersey, 2.1M/straw
# [5] = .25 mg/ml, 3 step, Holstein, 1M/straw
# [6] = .25 mg/ml, 3 step, Holstein, 2.1M/straw
# [7] = .25 mg/ml, 3 step, Holstein, 5M/straw
# [8] = .25 mg/ml, 3 step, Jersey, 2.1M/straw
# [9] = .35 mg/ml, 3 step, Holstein, 1M/straw
# [10] = .35 mg/ml, 3 step, Holstein, 2.1M/straw
# [11] = .35 mg/ml, 3 step, Holstein, 5M/straw
# [12] = .5 mg/ml, 3 step, Holstein, 5M/straw
substance,measurement,setting,value
vitamin B12,% Motility,"0 hr, 1 step-stain (+−−), Bull C (Jersey), Trial 1",80%
same,% Motility,"0 hr, 1 step-stain (+−−), Bull C (Jersey), Trial 2",61%
same,% Motility,"0 hr, 2 step-stain (++−), Bull C (Jersey), Trial 1",74%
same,% Motility,"0 hr, 2 step-stain (++−), Bull C (Jersey), Trial 2",57%
same,% Motility,"0 hr, 3 step (+++), Bull C (Jersey), Trial 1",70%
same,% Motility,"0 hr, 3 step (+++), Bull C (Jersey), Trial 2",76%
same,% Motility,"0 hr, vitamin B12 0.5 mg/ml, 3 step, Bull A (Jersey)",60%
same,% Motility,"0 hr, vitamin B12 0.5 mg/ml, 3 step, Bull B (Holstein)",79%
same,Motile (percent motile sperm),"0.5 mg/ml, 2 step F (catch fluid + cryoextender), 3 hrs post-thaw, Bulls 1-5",70.5% and 74.5% and 81.5% and 51% and 63.5%
same,ALH (average lateral head displacement),[1],4 μm and 5 μm
same,BCF (times sperm head crosses the mean path/s),[1],21.5 Hz and 22.5 Hz and 26 Hz and 20.5 Hz and 23 Hz
same,LIN (percent linear sperm motility),[1],61% and 52.5% and 49% and 47%
same,STR (percent straight-line sperm motility),[1],85.5% and 84.5% and 83.5% and 84% and 86.5%
same,VAP (average path velocity),[1],77 μm/s and 56 μm/s and 60 μm/s and 50 μm/s
same,VCL (curvilinear velocity),[1],108 μm/s and 98 μm/s and 109 μm/s and 101 μm/s and 94 μm/s
same,VSL (straight-line velocity),[1],66 μm/s and 51 μm/s and 53 μm/s and 47 μm/s and 45 μm/s
same,% Motility,"3 hr, 1 step-stain (+−−), Bull C (Jersey), Trial 1",47%
same,% Motility,"3 hr, 2 step-stain (++−), Bull C (Jersey), Trial 1",57%
same,% Motility,"3 hr, 2 step-stain (++−), Bull C (Jersey), Trial 2",25%
same,% Motility,"3 hr, 3 step (+++), Bull C (Jersey), Trial 1",75%
same,% Motility,"3 hr, 3 step (+++), Bull C (Jersey), Trial 2",42%
same,% Motility,"3 hr, vitamin B12 0.5 mg/ml, 3 step, Bull A (Jersey)",42%
same,% Motility,"3 hr, vitamin B12 0.5 mg/ml, 3 step, Bull B (Holstein)",48%
same,ALH,[2],4
same,BCF,[2],12
same,LIN,[2],53
same,Motile,[2],48
same,Prog,[2],18
same,STR,[2],88
same,VAP,[2],48
same,VCL,[2],81
same,VSL,[2],42
same,ALH,[3],5
same,BCF,[3],18
same,LIN,[3],48
same,Motile,[3],49
same,Prog,[3],10
same,STR,[3],86
same,VAP,[3],44
same,VCL,[3],79
same,VSL,[3],38
same,ALH,[4],6
same,BCF,[4],15
same,LIN,[4],47
same,Motile,[4],25
same,Prog,[4],4
same,STR,[4],84
same,VAP,[4],42
same,VCL,[4],75
same,VSL,[4],35
same,ALH,[5],4
same,BCF,[5],22
same,LIN,[5],53
same,Motile,[5],48
same,Prog,[5],29
same,STR,[5],87
same,VAP,[5],55
same,VCL,[5],92
same,VSL,[5],47
same,ALH,[6],5
same,BCF,[6],20
same,LIN,[6],50
same,Motile,[6],48
same,Prog,[6],18
same,STR,[6],87
same,VAP,[6],46
same,VCL,[6],81
same,VSL,[6],40
same,ALH,[7],7
same,BCF,[7],14
same,LIN,[7],42
same,Motile,[7],24
same,Prog,[7],2
same,STR,[7],70
same,VAP,[7],41
same,VCL,[7],69
same,VSL,[7],28
same,ALH,[8],5
same,BCF,[8],20
same,LIN,[8],50
same,Motile,[8],48
same,Prog,[8],20
same,STR,[8],85
same,VAP,[8],51
same,VCL,[8],87
same,VSL,[8],43
same,ALH,[9],4
same,BCF,[9],23
same,LIN,[9],55
same,Motile,[9],65
same,Prog,[9],46
same,STR,[9],88
same,VAP,[9],58
same,VCL,[9],94
same,VSL,[9],51
same,ALH,[10],5
same,BCF,[10],23
same,LIN,[10],53
same,Motile,[10],46
same,Prog,[10],30
same,STR,[10],88
same,VAP,[10],58
same,VCL,[10],99
same,VSL,[10],51
same,ALH,[11],7
same,BCF,[11],14
same,LIN,[11],43
same,Motile,[11],28
same,Prog,[11],3
same,STR,[11],69
same,VAP,[11],41
same,VCL,[11],68
same,VSL,[11],32
same,ALH,[12],6
same,BCF,[12],15
same,LIN,[12],43
same,Motile,[12],14
same,Prog,[12],3
same,STR,[12],70
same,VAP,[12],43
same,VCL,[12],71
same,VSL,[12],30
